Laboratory results published in US20100311714A1, “1H-IMIDAZO[4,5-c]QUINOLINONE COMPOUNDS” (priority 2009, published 2010).
Where two headings read alike, the source gives them in different places.

What was measured:
[1] = system: PKB Ser473 phosphorylation in Rat1-myr-HA-p110 alpha cells; experiment: Reverse protein array, PKB Ser473 phosphorylation in Rat1-myr-HA-p110 alpha cells; format: cell-based; details: Rattus norvegicus, 0.5 h, 30 minutes compound incubation, read-out: p-PKB/IC50_alpha
[2] = Parallel Artificial Membrane Permeability Assay (PAMPA) at pH 6.8; format: physicochemical
Summary of the method: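 PAMPA permeability measured at pH 6.8 following the Wohnsland and Faller method; value reported as log Pe.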

[3] = molecular target: T1, mTOR (Homo sapiens, UniProt P42345); experiment: Biochemical assay for m-TOR by TR-FRET
T1 construct: purchased Invitrogen Corporation (Carlsbad/Calif., USA) PV4753
Summary of the method: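 mTOR (0.5 nM) phosphorylates GFP-4EBP1 (400 nM) with 8 μM ATP at rt in 50 mM HEPES pH 7.5, 10 mM MnCl2, 50 mM NaCl, 1 mM EGTA, 1 mM DTT; compounds 0.003–10 μM final. EDTA stop with Tb-anti-p4EBP1[pT46] antibody (0.5 nM); TR-FRET read after 15 min against no-enzyme and vehicle controls.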

T1 sequence (P42345 1360-2549 limits assumed): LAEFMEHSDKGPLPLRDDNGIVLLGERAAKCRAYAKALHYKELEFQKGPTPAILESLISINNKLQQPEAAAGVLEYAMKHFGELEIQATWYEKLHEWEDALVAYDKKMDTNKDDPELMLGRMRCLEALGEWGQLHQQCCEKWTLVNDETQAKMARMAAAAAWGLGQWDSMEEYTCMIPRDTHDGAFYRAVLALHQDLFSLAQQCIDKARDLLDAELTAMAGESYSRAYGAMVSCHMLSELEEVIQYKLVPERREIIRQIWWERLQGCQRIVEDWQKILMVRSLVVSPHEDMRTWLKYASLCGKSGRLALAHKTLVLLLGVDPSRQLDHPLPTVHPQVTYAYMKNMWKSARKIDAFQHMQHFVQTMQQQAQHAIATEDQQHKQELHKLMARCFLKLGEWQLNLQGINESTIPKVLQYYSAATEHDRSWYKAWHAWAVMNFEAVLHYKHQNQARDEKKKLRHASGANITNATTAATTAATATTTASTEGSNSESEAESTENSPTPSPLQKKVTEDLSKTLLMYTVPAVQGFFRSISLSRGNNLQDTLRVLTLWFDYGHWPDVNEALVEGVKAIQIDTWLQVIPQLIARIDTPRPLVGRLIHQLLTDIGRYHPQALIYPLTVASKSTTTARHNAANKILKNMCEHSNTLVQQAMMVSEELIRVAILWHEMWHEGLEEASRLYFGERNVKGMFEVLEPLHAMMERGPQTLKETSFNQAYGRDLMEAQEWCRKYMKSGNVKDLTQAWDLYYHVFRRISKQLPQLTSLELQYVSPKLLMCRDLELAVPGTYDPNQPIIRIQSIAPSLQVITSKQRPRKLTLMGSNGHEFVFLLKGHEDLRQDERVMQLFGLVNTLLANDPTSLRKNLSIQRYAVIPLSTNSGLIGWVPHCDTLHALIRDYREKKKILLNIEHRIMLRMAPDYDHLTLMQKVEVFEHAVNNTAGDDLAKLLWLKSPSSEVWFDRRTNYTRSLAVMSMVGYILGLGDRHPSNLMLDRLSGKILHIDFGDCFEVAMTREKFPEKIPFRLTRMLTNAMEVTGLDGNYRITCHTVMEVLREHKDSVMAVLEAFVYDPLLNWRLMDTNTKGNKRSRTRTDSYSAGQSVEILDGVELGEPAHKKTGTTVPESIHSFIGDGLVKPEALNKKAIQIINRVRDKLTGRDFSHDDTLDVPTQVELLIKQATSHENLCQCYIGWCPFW

Row | IC50 [1] [nM] | HT-Perm logPe pH6.8 [2] | IC50 ([3]; read-out: EPK_mTOR/IC50) [nM] | HT-perm/logPe pH6.8 [2] | IC50 ([3]; read-out: mTOR/IC50) [nM] | SMILES
1 | 40.7 | −3.7 | 71 |  |  | COCCN(C)c1ccc(-n2c(=O)n(C)c3cnc4ccc(-c5cnc(N(C)C)nc5)cc4c32)c(C)n1 [Example 15.5, 8-(2-Dimethylamino-pyrimidin-5-yl)-1-{6-[(2-methoxy-ethyl)-methyl-amino]-2-methyl-pyridin-3-yl}-3-methyl-1,3-dihydro-imidazo[4,5-c]quinolin-2-one]
2 | < 4.57 | −4 | 8 |  |  | COCCN(C)c1ccc(-n2c(=O)n(C)c3cnc4ccc(-c5cnc(N)c(C(F)(F)F)c5)cc4c32)c(C)n1 [Example 15.1, 8-(6-Amino-5-trifluoromethyl-pyridin-3-yl)-1-{6-[(2-methoxy-ethyl)-methyl-amino]-2-methyl-pyridin-3-yl}-3-methyl-1,3-dihydro-imidazo[4,5-c]quinolin-2-one]
3 | 9.6 | −3.9 | 75 |  |  | COCCN(C)c1ccc(-n2c(=O)n(C)c3cnc4ccc(-c5cnc6c(ccn6C)c5)cc4c32)c(C)n1 [Example 15.7, 1-{6-[(2-Methoxy-ethyl)-methyl-amino]-2-methyl-pyridin-3-yl}-3-methyl-8-(1-methyl-1H-pyrrolo[2,3-b]pyridin-5-yl)-1,3-dihydro-imidazo[4,5-c]quinolin-2-one]
4 | 7.1 | −3.5 | 215 |  |  | COc1ccc(-n2c(=O)n(C)c3cnc4ccc(-c5cnc(N(C)C)nc5)cc4c32)c(Cl)n1 [Example 18.3, 1-(2-Chloro-6-methoxy-pyridin-3-yl)-8-(2-dimethylamino-pyrimidin-5-yl)-3-methyl-1,3-dihydro-imidazo[4,5-c]quinolin-2-one]

The next lines start with the compound.

Row | SMILES | IC50 [1] [nM] | HT-Perm logPe pH6.8 [2] | IC50 ([3]; read-out: EPK_mTOR/IC50) [nM] | HT-perm/logPe pH6.8 [2] | IC50 ([3]; read-out: mTOR/IC50) [nM]
5 | CCOc1ccc(-c2ccc3ncc4c(c3c2)n(-c2cccnc2C)c(=O)n4C)cn1 [Example 2.1, 8-(6-Ethoxy-pyridin-3-yl)-3-methyl-1-(2-methyl-pyridin-3-yl)-1,3-dihydro-imidazo[4,5-c]quinolin-2-one] | 6.31 |  |  | −3.7 | 42
6 | Cc1cc(F)ncc1-n1c(=O)n(C)c2cnc3ccc(-c4cnc(N)c(C(F)(F)F)c4)cc3c21 [Example 16.1, 8-(6-Amino-5-trifluoromethyl-pyridin-3-yl)-1-(6-fluoro-4-methyl-pyridin-3-yl)-3-methyl-1,3-dihydro-imidazo[4,5-c]quinolin-2-one] | 13.3 | −3.7 | 110 |  | 
7 | COc1ncccc1-n1c(=O)n(C)c2cnc3ccc(-c4cnc5c(ccn5C)c4)cc3c21 [Example 1.7, 1-(2-Methoxy-pyridin-3-yl)-3-methyl-8-(1-methyl-1H-pyrrolo[2,3-b]pyridin-5-yl)-1,3-dihydro-imidazo[4,5-c]quinolin-2-one] | 5.44 |  |  | −3.8 | 16
8 | CNc1ncc(-c2ccc3ncc4c(c3c2)n(-c2cnc(F)cc2C)c(=O)n4C)cn1 [Example 16.3, 1-(6-Fluoro-4-methyl-pyridin-3-yl)-3-methyl-8-(2-methylamino-pyrimidin-5-yl)-1,3-dihydro-imidazo[4,5-c]quinolin-2-one] | 64.1 | −4.4 | 151 |  | 
9 | CNc1cc(-c2ccc3ncc4c(c3c2)n(-c2ccc(C(F)(F)F)nc2C)c(=O)n4C)cnc1CO [Example 33.2, 8-(6-Hydroxymethyl-5-methylamino-pyridin-3-yl)-3-methyl-1-(2-methyl-6-trifluoromethyl-pyridin-3-yl)-1,3-dihydro-imidazo[4,5-c]quinolin-2-one] | 5.2 | −4.8 | 3 |  | 
10 | CCOc1cc(-c2ccc3ncc4c(c3c2)n(-c2cccnc2C)c(=O)n4C)cnc1C [Example 2.22, 8-(5-Ethoxy-6-methyl-pyridin-3-yl)-3-methyl-1-(2-methyl-pyridin-3-yl)-1,3-dihydro-imidazo[4,5-c]quinolin-2-one] | 11 | −3.7 | 80 |  | 
11 | CNc1cc(-c2ccc3ncc4c(c3c2)n(-c2ccc(F)nc2C)c(=O)n4C)cnc1CO [Example 7.11, 1-(6-Fluoro-2-methyl-pyridin-3-yl)-8-(6-hydroxymethyl-5-methylamino-pyridin-3-yl)-3-methyl-1,3-dihydro-imidazo[4,5-c]quinolin-2-one] | 12.6 | −5.4 | 11 |  | 
